Data from patent US8703796B2, “3H-imidazo [4, 5-B] pyridine-6-carboxamides as anti-inflammatory agents” (Boehringer Ingelheim International GmbH, priority 2008, dated 2014).

Target: T1, recombinant human mPGES-1 (Homo sapiens, UniProt O14684)
T1 construct: made in house; host or cells: Rosetta E. coli (microsomal/membrane fraction)
T1 sequence (O14684 1-152): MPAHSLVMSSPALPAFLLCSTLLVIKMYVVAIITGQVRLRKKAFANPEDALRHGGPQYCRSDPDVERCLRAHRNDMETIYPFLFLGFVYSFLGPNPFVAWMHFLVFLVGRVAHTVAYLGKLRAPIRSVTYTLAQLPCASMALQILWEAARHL
Test: mPGES-1 inhibition, HTRF detection of PGE2
Assay type: biochemical
Summary of the method: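 Microsomes from E. coli Rosetta expressing the enzyme, in 0.1 M KPi pH 7.4 with 2.5 mM GSH, were preincubated 25 min at room temperature with inhibitor in DMSO. PGH2 was added, the reaction stopped after one minute with acidified FeCl2, and PGE2 quantified by HTRF after 750-fold dilution.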

SMILES | inhibition at 10 µM [%]
Cn1c(Nc2cnccc2C(F)(F)F)nc2cc(C(=O)N[C@H]3CC[C@H](C(F)(F)F)CC3)c(OCC(F)F)nc21 [Example 789, 2-(4-Trifluoromethyl-pyridin-3-ylamino)-5-(2,2-difluoro-ethoxy)-N-(trans-4-trifluoromethyl-cyclohexyl)-3-methyl-3H-imidazo[4,5-b]pyridine-6-carboxamide] | 95
CC(C)(C)[C@H]1CC[C@H](NC(=O)c2cnc3[nH]c(Nc4c(Cl)cccc4Cl)nc3c2)CC1 [Example 379, N-((1r,4r)-4-tert.-Butylcyclohexyl)-2-(2,6-dichlorophenylamino)-3H-imidazo[4,5-b]pyridine-6-carboxamide] | 100
O=C(Nc1ccc(Br)cc1)c1cc2nc(Nc3c(Cl)cncc3Cl)[nH]c2nc1OCC(F)(F)F [Example 858, 2-(3,5-Dichloro-pyridin-4-ylamino)-5-(2,2,2-trifluoro-ethoxy)-N-(4-bromo-phenyl)-3H-imidazo[4,5-b]pyridine-6-carboxamide] | 100
CCOc1nc2[nH]c(Nc3c(Cl)cncc3Cl)nc2cc1C(=O)N[C@H]1CC[C@H](C(F)(F)F)CC1 [Example 842, 2-(3,5-Dichloro-pyridin-4-ylamino)-5-ethoxy-N-(trans-4-trifluoromethyl-cyclohexyl)-3H-imidazo[4,5-b]pyridine-6-carboxamide] | 92
Cn1c(Nc2c(Cl)cncc2Cl)nc2cc(C(=O)Nc3ccc(Br)cc3)c(OCCF)nc21 [Example 832, 2-(3,5-Dichloro-pyridin-4-ylamino)-5-(2-fluoro-ethoxy)-N-(4-bromo-phenyl)-3-methyl-3H-imidazo[4,5-b]pyridine-6-carboxamide] | 100
Cn1c(Nc2c(F)cccc2Cl)nc2cc(C(=O)Nc3ccc(Br)cc3)cnc21 [Example 480, N-(4-Bromophenyl)-2-(2-chloro-6-fluorophenylamino)-3-methyl-3H-imidazo[4,5-b]pyridine-6-carboxamide] | 100
Cn1c(Nc2c(Cl)cncc2Cl)nc2cc(C(=O)Nc3cc(C(F)(F)F)ccn3)c(OCCF)nc21 [Example 831, 2-(3,5-Dichloro-pyridin-4-ylamino)-5-(2-fluoro-ethoxy)-N-(4-trifluoromethyl-pyridin-2-yl)-3-methyl-3H-imidazo[4,5-b]pyridine-6-carboxamide] | 100
COCCOc1nc2c(cc1C(=O)Nc1ccc(Br)cc1)nc(Nc1c(Cl)cncc1Cl)n2C [Example 812, 2-(3,5-Dichloro-pyridin-4-ylamino)-5-(2-methoxy-ethoxy)-N-(4-bromo-phenyl)-3-methyl-3H-imidazo[4,5-b]pyridine-6-carboxamide] | 97
